# Laboratory results reported in patent US20080292619A1, “Pharmaceutical Composition Containing Meltrin Antagonist” (MOCHIDA PHARMACEUTICAL CO., LTD., priority 2004, published 2008).
# In the oligonucleotide strings, read from the 5' end, every base follows the letter of its sugar. An asterisk marks phosphorothioate; unmarked linkages are phosphodiester. Other units and linkages are bracketed, terminal groups are in braces. A string of capitals states the bases alone. d = 2'-deoxy (DNA)
# Test system: human meltrin α RNA
# Assay: Suppression of human meltrin α expression by antisense compound in RD cell (real time PCR)
# Assay type: cell-based
# Details: 50 nM; RD cell; corrected by GAPDH
# Procedure, shortened: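 RD cells transfected with heat-denatured antisense oligodeoxynucleotide plus Lipofectin in Opti-MEM for 4 h at 37° C, then cultured 18 h. Meltrin α RNA quantified by TaqMan RT-PCR against plasmid standard curve, GAPDH-corrected; suppression vs untreated cells, rated +/++/+++ for ≥30/50/70%.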
row,Substance,"suppression rate of expression, 50 nM"
1,"H118: ggaggtgcccagtgggcctc (GGAGGTGCCCAGTGGGCCTC; antisense; DNA, all phosphorothioate, methylation of C not given here)",+ (“+” when the suppression rate was at least 30%)
2,"H130 + 5: gagcctgacagggttggaag (GAGCCTGACAGGGTTGGAAG; antisense; DNA, all phosphorothioate, methylation of C not given here)",++ (“++” when the suppression rate was at least 50%)
3,"H130 + 10: gaggtgagcctgacagggtt (GAGGTGAGCCTGACAGGGTT; antisense; DNA, all phosphorothioate, methylation of C not given here)",+ (“+” when the suppression rate was at least 30%)
4,"H130 + 15: tggccgaggtgagcctgaca (TGGCCGAGGTGAGCCTGACA; antisense; DNA, all phosphorothioate, methylation of C not given here)",++ (“++” when the suppression rate was at least 50%)
5,"H131 + 5: ttttccaaggtggccgaggt (TTTTCCAAGGTGGCCGAGGT; antisense; DNA, all phosphorothioate, methylation of C not given here)",+ (“+” when the suppression rate was at least 30%)
6,"H131 + 10: aggccttttccaaggtggcc (AGGCCTTTTCCAAGGTGGCC; antisense; DNA, all phosphorothioate, methylation of C not given here)",+ (“+” when the suppression rate was at least 30%)
7,"H132 + 15: gtaggaatctggcggcttcc (GTAGGAATCTGGCGGCTTCC; antisense; DNA, all phosphorothioate, methylation of C not given here)",+ (“+” when the suppression rate was at least 30%)
8,"H132 + 17: gggtaggaatctggcggctt (GGGTAGGAATCTGGCGGCTT; antisense; DNA, all phosphorothioate, methylation of C not given here)",++ (“++” when the suppression rate was at least 50%)

# Same assay, conditions: 200 nM; RD cell; corrected by GAPDH
row,Substance,"suppression rate of expression, 200 nM"
1,H114: gtgaaccccaaagacactaa (dG*dT*dG*dA*dA*dC*dC*dC*dC*dA*dA*dA*dG*dA*dC*dA*dC*dT*dA*dA; antisense),+ (“+” when the suppression rate was at least 30%)
2,H115: tggcactgcattgcacactc (dT*dG*dG*dC*dA*dC*dT*dG*dC*dA*dT*dT*dG*dC*dA*dC*dA*dC*dT*dC; antisense),++ (“++” when the suppression rate was at least 50%)
3,"H117: gcagtggcagttcttcctgt (GCAGTGGCAGTTCTTCCTGT; antisense; DNA, all phosphorothioate, methylation of C not given here)",+ (“+” when the suppression rate was at least 30%)
4,"H118: ggaggtgcccagtgggcctc (GGAGGTGCCCAGTGGGCCTC; antisense; DNA, all phosphorothioate, methylation of C not given here)",++ (“++” when the suppression rate was at least 50%)
5,"H119: agccaaacttgtcacagaag (AGCCAAACTTGTCACAGAAG; antisense; DNA, all phosphorothioate, methylation of C not given here)",+ (“+” when the suppression rate was at least 30%)
6,"H123: caggatggtcaccagaattc (CAGGATGGTCACCAGAATTC; antisense; DNA, all phosphorothioate, methylation of C not given here)",+ (“+” when the suppression rate was at least 30%)
7,"H126: cagcagtcgtatcaaggtct (CAGCAGTCGTATCAAGGTCT; antisense; DNA, all phosphorothioate, methylation of C not given here)",+ (“+” when the suppression rate was at least 30%)
8,"H129: gggtggccgggaagggcgca (GGGTGGCCGGGAAGGGCGCA; antisense; DNA, all phosphorothioate, methylation of C not given here)",++ (“++” when the suppression rate was at least 50%)
